According to patent US7271130B2 (priority 2002, dated 2007):

Test system: Erysiphe graminis f.sp. hordei
Assay type: in vivo
Details: 200 ppm

Compound: CC#CC(C)(C)NC(=O)C(COC)Oc1cc(Cl)cc(Cl)c1 (stereo not shown) [4(1), 2-(3,5-dichlorophenoxy)-3-methoxy-N-(4-methylpent-2-yn-4-yl)propionamide]
- control of fungal infection: at least 70%
